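Interpolation was linear, between the two tested concentrations surrounding the appropriate level; five concentrations were tested over 48 hours in 96-well plates. GI50 is the concentration that inhibits growth by half. The concentration for full growth arrest is given as TGI.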
Legend:
Test in all cases: DTP human tumour cell line panel, 48 h
[1] = system: SF-268 CNS
[2] = system: HOP-92 NSCLC
[3] = system: RPMI-8226 leukemia
[4] = system: SNB-19 CNS
[5] = system: OVCAR-4 ovarian
[6] = system: HCT-116 colon
[7] = system: U251 CNS
[8] = system: TK-10 renal
[9] = system: HOP-62 NSCLC
[10] = system: RXF 393 renal

Compound	GI50 [1]	TGI [1]	GI50 [2]	TGI [2]	GI50 [3]	TGI [3]	GI50 [4]	TGI [4]	GI50 [5]	TGI [5]	GI50 [6]	TGI [6]	GI50 [7]	TGI [7]	GI50 [8]	TGI [8]	GI50 [9]	TGI [9]	GI50 [10]	TGI [10]
COc1ccc(-c2nn3ncccc3c2-c2ccnc(Nc3ccc4c(c3)OCCO4)n2)cc1	11.1 µM	> 25 µM	0.521 µM	10.6 µM	4.69 µM	> 20.7 µM	16.3 µM	> 25 µM	9.19 µM	> 25 µM	8.16 µM	> 25 µM	14.3 µM	> 25 µM	4.54 µM	18.5 µM	9.64 µM	> 25 µM	3.27 µM	> 25 µM
Cn1cc(C2=C(c3ccccc3C(F)(F)F)C(=O)NC2=O)c2ccccc21	11.4 µM	> 25 µM	17.2 µM	> 25 µM	10.7 µM	> 25 µM	21 µM	> 25 µM	9.64 µM	> 25 µM	6.59 µM	> 25 µM	7.06 µM	> 25 µM	10.2 µM	> 25 µM	11.8 µM	> 25 µM	5.17 µM	16.7 µM
O=C(CN(/C=C/C(=O)C(F)(F)F)c1ccccc1)c1ccc(Cl)cc1	18.9 µM	38.8 µM	19.1 µM	42.1 µM	9.66 µM	43.1 µM	22 µM	51.5 µM	26.6 µM	70.1 µM	12 µM	24.5 µM	15.7 µM	29.5 µM	28 µM	88.2 µM	17.2 µM	31.8 µM	17.1 µM	42.6 µM
COc1ccc(-c2nsc3c2NC(=O)CC3c2cccc(Cl)c2)cc1 (centres undefined)	8.04 µM	> 100 µM	1.09 µM	33.6 µM	3.6 µM	> 100 µM	5.44 µM	> 100 µM	7.62 µM	> 100 µM	0.83 µM	> 100 µM	2.33 µM	> 100 µM	3.48 µM	> 100 µM	4.04 µM	98.1 µM	2.57 µM	33 µM
NC(=S)N/N=C1/CN(c2ccc(Cl)c(Cl)c2)CC(=O)C1c1nc2ccccc2s1 (centres undefined)	–	> 100 µM	–	> 100 µM	–	> 100 µM	–	> 100 µM	–	> 100 µM	–	> 100 µM	–	> 100 µM	–	> 100 µM	–	> 100 µM	–	> 100 µM
CC(C)C(=S)N(C)O	–	> 100 µM	–	> 100 µM	–	> 52.6 µM	–	> 100 µM	–	> 100 µM	–	19.9 µM	–	> 100 µM	–	> 91.4 µM	–	> 93.3 µM	–	> 100 µM
CCOc1ccc(N=Cc2ccnc3ccccc23)cc1	–	> 84.2 µM	–	> 100 µM	–	35.1 µM	–	> 100 µM	–	> 100 µM	–	54.3 µM	–	> 68.1 µM	–	> 100 µM	–	> 94 µM	–	> 100 µM
COc1ccc2c(c1)CCc1c(CO)c(COC(=O)NC(C)C)n(C)c1-2	–	63.8 µM	–	22.5 µM	–	7.05 µM	–	56.1 µM	–	53.5 µM	–	11.6 µM	–	35.8 µM	–	> 100 µM	–	75.6 µM	–	38.7 µM
CC(=O)OC1C(O[C@H]2CC[C@]34O[C@]35CC[C@]3(C)C(C6(C)CC[C@@H](C(C)(C)O)O6)[C@@H](O)CC3(C)[C@@H]5CC(OC3OC(CO)C(O)C(O)C3O)C4C2(C)C)OCC(O)C1O (some centres undefined)	–	> 100 µM	–	> 100 µM	–	> 71.3 µM	–	> 100 µM	–	> 100 µM	–	> 100 µM	–	> 100 µM	–	> 100 µM	–	> 100 µM	–	> 100 µM
Cc1nc(Sc2nc3ccc([N+](=O)[O-])cc3s2)sc1C	1.7 µM	10.9 µM	2.54 µM	7.55 µM	1.8 µM	6.52 µM	8.41 µM	21.9 µM	1.35 µM	9.81 µM	1.06 µM	2.49 µM	1.99 µM	7.9 µM	2.05 µM	7.87 µM	3.81 µM	14.2 µM	1.22 µM	3.39 µM
CC[C@@H](O)C[C@H]1CCC[C@@]2(C[C@@H]3OC(=O)/C=C/[C@@](C)(O)[C@@H](O)[C@H](C)[C@@H](O)[C@H](OC4CCC(N(C)C)C(C)O4)[C@@H](O)[C@](C)(O)CCCCC/C=C/[C@@H]4CC(C)(C)O[C@@]4(O)C[C@H](O2)[C@H]3C)O1 (some centres undefined)	–	35.2 µM	–	37.2 µM	–	25 µM	–	20.6 µM	–	25.7 µM	–	26.2 µM	–	36.8 µM	–	21.6 µM	–	26.2 µM	–	34.6 µM
CCOc1ccc(C(C)=O)cc1NC(=O)c1cccc(-c2nnn(CC)n2)c1	0.901 µM	> 100 µM	0.418 µM	49.4 µM	1.22 µM	> 100 µM	1.29 µM	76.6 µM	4.96 µM	> 100 µM	0.419 µM	> 100 µM	0.458 µM	16.7 µM	14.3 µM	50.3 µM	0.39 µM	18.1 µM	0.61 µM	11.6 µM
COc1cccc(NC(=O)c2sc3nc4c(cc3c2N)C(O)CCC4)c1 (centres undefined)	0.496 µM	> 55 µM	0.169 µM	23 µM	0.333 µM	> 100 µM	2.12 µM	> 93.2 µM	0.775 µM	> 100 µM	0.117 µM	> 100 µM	0.244 µM	> 51.6 µM	46.8 µM	> 100 µM	0.26 µM	64.6 µM	0.278 µM	37.7 µM
Cc1c(C)c2c(c(C)c1OCC(=O)O)CC[C@@](C)(CCC[C@@H](C)CCC[C@@H](C)CCCC(C)C)O2	87.8 µM	196 µM	58.6 µM	137 µM	56.3 µM	214 µM	95.8 µM	196 µM	59.6 µM	136 µM	33.2 µM	108 µM	52.7 µM	133 µM	85.6 µM	154 µM	62.2 µM	161 µM	61.6 µM	137 µM
C/C(CC(=O)Nc1ccc(NC(=O)C/C(C)=N\NC(N)=O)cc1)=N/NC(N)=O	–	> 100 µM	–	> 100 µM	–	55.5 µM	–	> 100 µM	–	> 100 µM	–	> 100 µM	–	> 100 µM	–	> 100 µM	–	> 100 µM	–	> 100 µM
C=C(CN1c2ccccc2Sc2ccccc21)c1ccc(C(=O)Nc2ccccc2N)cc1	25.7 µM	> 100 µM	> 47.9 µM	> 100 µM	0.597 µM	> 25.4 µM	> 54.3 µM	> 100 µM	12 µM	97.3 µM	11.1 µM	> 100 µM	> 50.3 µM	> 100 µM	23.9 µM	> 100 µM	> 46.7 µM	> 100 µM	> 100 µM	> 100 µM
CCN(CC)c1ccc2nc3ccc(N=Nc4ccc(O)cc4)cc3[n+](-c3ccccc3)c2c1	5 µM	> 100 µM	> 100 µM	> 100 µM	3.85 µM	> 100 µM	11 µM	22.9 µM	1.39 µM	2.77 µM	2.66 µM	10.6 µM	7.81 µM	> 100 µM	3.15 µM	> 100 µM	2.68 µM	15.1 µM	10.4 µM	24.8 µM
Cc1noc(C)c1-c1cnc2c(-c3ccc(C(=O)O)cc3)cn([C@@H](C)c3ccccn3)c2c1	9.04 µM	> 100 µM	0.212 µM	> 100 µM	0.155 µM	> 100 µM	1.58 µM	> 100 µM	0.772 µM	> 100 µM	1.14 µM	> 100 µM	3.38 µM	> 100 µM	0.405 µM	> 100 µM	0.555 µM	> 100 µM	2.4 µM	34.6 µM
NC(CSC(c1ccccc1)(c1ccccc1)c1ccc(F)cc1)C(=O)O (centres undefined)	0.505 µM	35.1 µM	0.701 µM	29.3 µM	0.279 µM	12.7 µM	0.458 µM	> 47.4 µM	9.62 µM	> 100 µM	0.381 µM	> 34.6 µM	0.374 µM	> 60.5 µM	13.3 µM	> 100 µM	3.04 µM	> 85.6 µM	0.414 µM	–
CCC(C)(O)c1cn(-c2ccc(S(=O)(=O)O)cc2)nn1 (centres undefined)	–	> 100 µM	–	> 100 µM	–	> 100 µM	–	> 100 µM	–	> 100 µM	–	> 100 µM	–	> 100 µM	–	> 100 µM	–	> 100 µM	–	> 100 µM
COc1ccc2c(c1)O/C(=C\c1cccc(OCC(=O)Nc3nc(C)c(C)s3)c1)C2=O	0.638 µM	1.4 µM	1.32 µM	3.09 µM	1.66 µM	3.97 µM	27.5 µM	> 100 µM	12.8 µM	> 100 µM	5.53 µM	> 53.3 µM	1.62 µM	3.08 µM	5.41 µM	> 100 µM	0.542 µM	1.13 µM	1.06 µM	2.75 µM

— PubChem BioAssay (NCI)
